Reference: patent publication US9550772B2, “Azaindole derivatives as multi kinase inhibitors” (ORIBASE PHARMA, priority 2012, dated 2017)
Read-outs that look alike come from different tables or passages of the source.

Columns and labels:
[1] = target: T1, BRAF (Homo sapiens, UniProt P15056); experiment: In vitro kinase assay (Z'-LYTE, Invitrogen); format: biochemical; conditions: compound at 100 nM, ATP Km apparent, read-out: % of inhibition of the kinase compared to the control
T1 construct: purchased Invitrogen
T1 sequence (P15056 whole entry): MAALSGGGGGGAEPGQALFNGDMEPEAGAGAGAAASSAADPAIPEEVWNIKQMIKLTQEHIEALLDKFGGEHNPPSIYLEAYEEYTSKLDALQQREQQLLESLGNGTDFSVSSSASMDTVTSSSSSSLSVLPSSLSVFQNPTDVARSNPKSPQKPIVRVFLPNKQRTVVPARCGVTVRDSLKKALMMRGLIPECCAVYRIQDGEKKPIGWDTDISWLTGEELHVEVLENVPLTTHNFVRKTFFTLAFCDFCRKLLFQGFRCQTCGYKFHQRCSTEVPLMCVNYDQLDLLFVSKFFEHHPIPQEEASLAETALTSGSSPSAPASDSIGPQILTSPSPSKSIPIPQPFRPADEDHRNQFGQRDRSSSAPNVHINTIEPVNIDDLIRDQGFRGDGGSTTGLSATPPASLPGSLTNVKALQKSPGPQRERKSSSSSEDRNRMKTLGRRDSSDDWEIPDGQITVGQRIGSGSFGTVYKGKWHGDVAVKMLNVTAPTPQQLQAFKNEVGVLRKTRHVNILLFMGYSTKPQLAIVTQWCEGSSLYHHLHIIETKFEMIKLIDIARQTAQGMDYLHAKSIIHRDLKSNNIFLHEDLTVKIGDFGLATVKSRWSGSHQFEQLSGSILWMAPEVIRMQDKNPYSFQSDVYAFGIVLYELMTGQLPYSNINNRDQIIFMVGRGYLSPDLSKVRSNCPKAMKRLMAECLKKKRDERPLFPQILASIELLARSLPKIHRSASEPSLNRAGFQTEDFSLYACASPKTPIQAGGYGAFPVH
Method: (§1) The inhibitory activity of the compounds on 7 kinases (BRAF, EGFR (ErbB1), EGFR (ErbB1) T790M L858R, FGFR2, KDR (VEGFR2), PDGFRA (PDGFR alpha), SRC) was evaluated by Invitrogen using the Z′-LYTE® technology. Briefly, the Z′-LYTE® biochemical assay employs a fluorescence-based, coupled-enzyme format and is based on the differential sensitivity of phosphorylated and non-phosphorylated peptides to proteolytic cleavage. The peptide substrate is labeled with two fluorophores—one at each end—that make up a FRET pair. A ratiometric method, which calculates the ratio (the Emission Ratio) of donor emission to acceptor emission after excitation of the donor fluorophore at 400 nm, is used to quantitate reaction progress.
(§2) The compounds are screened in 1% DMSO (final) in the well. For 10 point titrations, 3-fold serial dilutions are conducted from the starting concentration. All Peptide/Kinase Mixtures are diluted to a 2× working concentration in the appropriate Kinase Buffer. All ATP Solutions are diluted to a 4× working concentration in Kinase Buffer (50 mM HEPES pH 7.5, 0.01% BRIJ-35, 10 mM MgCl2, 1 mM EGTA). ATP Km apparent is previously determined using a Z′-LYTE® assay.
(§3) Each compound was incubated at a concentration of 100 nM and the tables 21 to 27 summarize the results obtained showing the inhibitory power of a compound.

[2] = target: T2, EGFR (ErbB1) (Homo sapiens, UniProt P00533); experiment: In vitro kinase assay (Z'-LYTE, Invitrogen); format: biochemical; conditions: compound at 100 nM, ATP Km apparent, read-out: % of inhibition of the kinase compared to the control
T2 construct: purchased Invitrogen
T2 sequence (P00533 25-1210): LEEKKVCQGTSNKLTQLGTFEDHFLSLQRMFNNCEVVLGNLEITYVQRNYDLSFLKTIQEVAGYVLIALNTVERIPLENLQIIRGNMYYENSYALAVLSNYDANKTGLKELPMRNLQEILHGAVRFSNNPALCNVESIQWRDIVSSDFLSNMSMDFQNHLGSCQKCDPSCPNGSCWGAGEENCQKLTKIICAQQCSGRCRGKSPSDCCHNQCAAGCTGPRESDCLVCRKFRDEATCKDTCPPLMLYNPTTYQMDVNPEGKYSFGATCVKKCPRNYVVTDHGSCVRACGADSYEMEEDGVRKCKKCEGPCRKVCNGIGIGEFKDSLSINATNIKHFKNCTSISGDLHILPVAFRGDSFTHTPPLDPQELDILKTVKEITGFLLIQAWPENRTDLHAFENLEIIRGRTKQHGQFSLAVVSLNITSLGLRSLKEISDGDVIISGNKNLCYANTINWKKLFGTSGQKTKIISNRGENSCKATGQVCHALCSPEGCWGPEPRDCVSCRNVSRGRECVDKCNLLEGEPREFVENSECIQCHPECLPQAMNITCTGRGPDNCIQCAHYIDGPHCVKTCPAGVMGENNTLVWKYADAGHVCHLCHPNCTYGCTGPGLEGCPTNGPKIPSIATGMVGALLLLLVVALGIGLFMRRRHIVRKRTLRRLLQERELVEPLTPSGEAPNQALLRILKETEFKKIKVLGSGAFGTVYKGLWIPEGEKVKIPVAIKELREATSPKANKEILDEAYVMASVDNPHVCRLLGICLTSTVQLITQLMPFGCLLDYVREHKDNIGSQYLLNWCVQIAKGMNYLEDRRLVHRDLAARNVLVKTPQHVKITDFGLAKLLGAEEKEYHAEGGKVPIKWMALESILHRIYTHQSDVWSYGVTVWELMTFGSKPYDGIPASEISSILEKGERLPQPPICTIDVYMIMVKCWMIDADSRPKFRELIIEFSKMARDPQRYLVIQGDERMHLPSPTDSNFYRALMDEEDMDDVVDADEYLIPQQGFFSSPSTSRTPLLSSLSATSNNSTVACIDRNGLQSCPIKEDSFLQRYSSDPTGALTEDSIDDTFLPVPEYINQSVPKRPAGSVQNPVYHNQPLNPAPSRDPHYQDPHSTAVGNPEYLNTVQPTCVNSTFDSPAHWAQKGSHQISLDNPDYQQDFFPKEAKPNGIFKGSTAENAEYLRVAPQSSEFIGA
Method: as §1, §2, §3

[3] = target: T3, FGFR2 (Homo sapiens, UniProt P21802); experiment: In vitro kinase assay (Z'-LYTE, Invitrogen); format: biochemical; conditions: compound at 100 nM, ATP Km apparent, read-out: % of inhibition of the kinase compared to the control
T3 construct: purchased Invitrogen
T3 sequence (P21802 22-821): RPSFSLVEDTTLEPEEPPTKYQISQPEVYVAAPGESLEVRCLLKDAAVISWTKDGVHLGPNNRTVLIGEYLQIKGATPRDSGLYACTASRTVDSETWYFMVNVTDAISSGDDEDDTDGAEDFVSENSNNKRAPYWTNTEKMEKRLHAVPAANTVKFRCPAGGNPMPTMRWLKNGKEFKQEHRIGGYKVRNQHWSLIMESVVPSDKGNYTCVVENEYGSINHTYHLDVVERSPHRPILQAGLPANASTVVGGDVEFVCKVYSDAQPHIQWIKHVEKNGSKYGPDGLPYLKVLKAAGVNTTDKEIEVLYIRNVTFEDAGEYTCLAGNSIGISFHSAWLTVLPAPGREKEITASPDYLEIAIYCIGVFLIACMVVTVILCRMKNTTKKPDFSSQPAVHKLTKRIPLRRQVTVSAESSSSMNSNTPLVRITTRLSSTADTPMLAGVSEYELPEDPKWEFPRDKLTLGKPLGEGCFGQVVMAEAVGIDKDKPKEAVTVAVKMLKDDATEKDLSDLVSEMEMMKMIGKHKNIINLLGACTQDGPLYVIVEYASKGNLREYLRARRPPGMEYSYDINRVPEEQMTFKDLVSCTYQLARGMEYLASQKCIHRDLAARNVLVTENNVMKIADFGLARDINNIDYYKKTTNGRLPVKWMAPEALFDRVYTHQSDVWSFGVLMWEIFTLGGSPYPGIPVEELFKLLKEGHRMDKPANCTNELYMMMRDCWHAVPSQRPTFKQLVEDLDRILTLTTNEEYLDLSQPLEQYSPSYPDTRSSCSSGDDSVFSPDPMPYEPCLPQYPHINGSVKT
Method: as §1, §2, §3

[4] = target: T4, KDR (VEGFR2) (Homo sapiens, UniProt P35968); experiment: In vitro kinase assay (Z'-LYTE, Invitrogen); format: biochemical; conditions: compound at 100 nM, ATP Km apparent, read-out: % of inhibition of the kinase compared to the control
T4 construct: purchased Invitrogen
Method: as §1, §2, §3

[5] = test system: A549 cell line; experiment: In vitro cell proliferation assay (MTT); format: cell-based; conditions: Homo sapiens, A549, 72 h, read-out: EC50, anti-proliferative activity
Method: (§4) Cancer cell lines (5×10^3 cells per well) or HUVEC (1×10^4 cells per well) or HRMEC (1×10^4 cells per well) were distributed in 96-well plates and incubating in duplicate with escalating concentrations (10 nM to 3 μM) of compounds for 72 hr. Cell proliferation was measured using MTT (3[4,5-dimethylthiazol-2-yl]-2,5-diphenyltetrazolium bromide). The EC50 values were calculated from sigmoidal dose-response curves utilizing Prism 5.0 from Graph-Pad Software (GraphPad Software, La Jolla, Calif., USA), with values normalized to those of DMSO-treated control wells (0%) and 1% SDS control wells (100%).

[6] = test system: HUVEC cells; experiment: In vitro cell proliferation assay (MTT); format: cell-based; conditions: Homo sapiens, 72 hr, read-out: EC50, anti-proliferative activity
Method: as §4

[7] = test system: HeLa cell line; experiment: In vitro cell proliferation assay (MTT); format: cell-based; conditions: Homo sapiens, 72 hr, read-out: EC50, anti-proliferative activity
Method: as §4

[8] = test system: HepG2 cell line; experiment: In vitro cell proliferation assay (MTT); format: cell-based; conditions: Homo sapiens, HepG2, 72 hr, read-out: EC50, anti-proliferative activity
Method: as §4

[9] = test system: MDA-MB-231 cell line; experiment: In vitro cell proliferation assay (MTT); format: cell-based; conditions: Homo sapiens, MDA-MB-231, 72 hr, read-out: EC50, anti-proliferative activity
Method: as §4

[10] = target: T5, PDGFRA (PDGFR alpha) (Homo sapiens, UniProt P16234); experiment: In vitro kinase assay (Z'-LYTE, Invitrogen); format: biochemical; conditions: compound at 100 nM, ATP Km apparent, read-out: % of inhibition of the kinase compared to the control
T5 construct: purchased Invitrogen
T5 sequence (P16234 24-1089): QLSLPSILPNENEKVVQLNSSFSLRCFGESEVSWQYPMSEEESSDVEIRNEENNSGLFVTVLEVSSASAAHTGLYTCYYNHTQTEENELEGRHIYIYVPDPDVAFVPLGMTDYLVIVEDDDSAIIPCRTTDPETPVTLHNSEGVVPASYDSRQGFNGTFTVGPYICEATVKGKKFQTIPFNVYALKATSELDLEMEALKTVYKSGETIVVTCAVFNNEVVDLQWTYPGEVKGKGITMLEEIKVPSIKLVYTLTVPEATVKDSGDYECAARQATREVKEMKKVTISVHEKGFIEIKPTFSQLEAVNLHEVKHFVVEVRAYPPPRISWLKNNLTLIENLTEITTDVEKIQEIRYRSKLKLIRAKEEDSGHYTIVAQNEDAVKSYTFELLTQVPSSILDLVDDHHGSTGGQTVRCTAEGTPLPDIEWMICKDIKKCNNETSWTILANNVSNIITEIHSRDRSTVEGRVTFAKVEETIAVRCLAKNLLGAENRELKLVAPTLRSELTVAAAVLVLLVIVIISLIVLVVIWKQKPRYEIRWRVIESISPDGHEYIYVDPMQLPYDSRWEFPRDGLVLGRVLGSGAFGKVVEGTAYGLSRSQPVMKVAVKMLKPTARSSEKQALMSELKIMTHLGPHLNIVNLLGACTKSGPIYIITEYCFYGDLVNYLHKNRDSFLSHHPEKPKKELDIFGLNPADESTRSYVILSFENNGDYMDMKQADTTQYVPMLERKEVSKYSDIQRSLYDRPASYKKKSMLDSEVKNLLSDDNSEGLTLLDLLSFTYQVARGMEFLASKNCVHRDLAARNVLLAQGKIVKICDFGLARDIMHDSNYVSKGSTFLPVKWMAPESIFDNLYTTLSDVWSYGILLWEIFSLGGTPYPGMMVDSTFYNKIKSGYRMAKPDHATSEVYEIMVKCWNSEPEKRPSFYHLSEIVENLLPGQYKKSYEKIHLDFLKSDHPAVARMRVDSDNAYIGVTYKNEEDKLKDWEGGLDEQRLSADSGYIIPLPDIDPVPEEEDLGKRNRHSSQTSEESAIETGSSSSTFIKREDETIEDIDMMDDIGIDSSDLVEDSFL
Method: as §1, §2, §3

[11] = target: T6, SRC (Homo sapiens, UniProt P12931); experiment: In vitro kinase assay (Z'-LYTE, Invitrogen); format: biochemical; conditions: compound at 100 nM, ATP Km apparent, read-out: % of inhibition of the kinase compared to the control
T6 construct: purchased Invitrogen
T6 sequence (P12931 whole entry): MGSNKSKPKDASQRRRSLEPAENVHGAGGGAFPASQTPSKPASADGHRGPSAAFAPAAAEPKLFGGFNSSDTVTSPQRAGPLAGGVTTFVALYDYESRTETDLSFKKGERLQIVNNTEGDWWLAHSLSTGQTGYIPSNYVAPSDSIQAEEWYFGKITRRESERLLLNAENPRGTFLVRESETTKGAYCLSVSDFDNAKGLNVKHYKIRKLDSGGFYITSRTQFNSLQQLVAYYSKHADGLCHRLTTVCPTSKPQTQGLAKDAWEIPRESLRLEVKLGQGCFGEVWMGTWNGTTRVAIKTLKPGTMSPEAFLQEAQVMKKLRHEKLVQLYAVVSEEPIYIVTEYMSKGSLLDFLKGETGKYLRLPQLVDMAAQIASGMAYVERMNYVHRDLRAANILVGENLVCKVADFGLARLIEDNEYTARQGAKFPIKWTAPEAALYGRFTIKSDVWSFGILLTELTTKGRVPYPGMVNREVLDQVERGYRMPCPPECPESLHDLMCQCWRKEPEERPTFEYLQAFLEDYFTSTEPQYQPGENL
Method: as §1, §2, §3

| SMILES | inhibition at 0.1 µM [1] [%] | inhibition at 0.1 µM [2] [%] | inhibition at 0.1 µM [3] [%] | inhibition at 0.1 µM [4] [%] | EC50 ([5]; EC50 ≧ 1 μM) [nM] | EC50 ([6]; EC50 ≧ 1 μM) [nM] | EC50 ([7]; EC50 ≧ 1 μM) [nM] | EC50 ([8]; EC50 ≧ 1 μM) [nM] | EC50 ([9]; EC50 ≧ 1 μM) [nM] | EC50 ([5]; 100 nM < EC50 < 1 μM) [nM] | EC50 ([6]; EC50 ≦ 100 nM) [nM] | EC50 ([7]; EC50 ≦ 100 nM) [nM] | EC50 ([8]; 100 nM < EC50 < 1 μM) [nM] | EC50 ([9]; EC50 ≦ 100 nM) [nM] | EC50 ([9]; 100 nM < EC50 < 1 μM) [nM] | EC50 ([6]; 100 nM < EC50 < 1 μM) [nM] | EC50 ([7]; 100 nM < EC50 < 1 μM) [nM] | inhibition at 0.1 µM [10] [%] | inhibition at 0.1 µM [11] [%] |
| --- | --- | --- | --- | --- | --- | --- | --- | --- | --- | --- | --- | --- | --- | --- | --- | --- | --- | --- | --- |
| COC(=O)c1cc2cc(CCc3cccc(CNC(=O)c4ccc(CN5CCN(C)CC5)c(C(F)(F)F)c4)c3)cnc2[nH]1 [OR1018, 5-[2-(3-{[4-(4-Methyl-piperazin-1-ylmethyl)-3-trifluoromethyl-benzoylamino]-methyl}-phenyl)-ethyl]-1H-pyrrolo[2,3-b]pyridine-2-carboxylic acid methyl ester] | < 50 | < 50 | < 50 | ≥ 50 | ≥ 1000 | ≥ 1000 | ≥ 1000 | ≥ 1000 | ≥ 1000 |  |  |  |  |  |  |  |  |  |  |
| COC(=O)c1cc2cc(CCc3cccc(NC(=O)c4ccc(CN5CCN(C)CC5)c(C(F)(F)F)c4)c3)cnc2[nH]1 [OR0921, 5-(2-{3-[4-(4-Methyl-piperazin-1-ylmethyl)-3-trifluoromethyl-benzoylamino]-phenyl}-ethyl)-1H-pyrrolo[2,3-b]pyridine-2-carboxylic acid methyl ester] | < 50 | ≥ 50 | ≥ 50 | ≥ 50 |  |  |  |  |  | 100 to 1000 | ≤ 100 | ≤ 100 | 100 to 1000 | ≤ 100 |  |  |  |  |  |
| COC(=O)c1cc2cc(NCCc3cccc(NC(=O)c4ccc(CN5CCN(C)CC5)c(C(F)(F)F)c4)c3)cnc2[nH]1 [OR1019, 5-(2-{3-[4-(4-Methyl-piperazin-1-ylmethyl)-3-trifluoromethyl-benzoylamino]-phenyl}-ethylamino)-1H-pyrrolo[2,3-b]pyridine-2-carboxylic acid methyl ester] | < 50 | ≥ 50 | < 50 | ≥ 50 | ≥ 1000 | ≥ 1000 | ≥ 1000 | ≥ 1000 |  |  |  |  |  |  | 100 to 1000 |  |  |  |  |
| COC(=O)c1cc2cc(CCc3ccc(C)c(NC(=O)c4ccc(CN5CCC(N(C)C)C5)c(C(F)(F)F)c4)c3)cnc2[nH]1 (stereo not shown) [OR1044, 5-(2-{5-[4-(3-Dimethylamino-pyrrolidin-1-ylmethyl)-3-trifluoromethyl-benzoylamino]-4-methyl-phenyl}-ethyl)-1H-pyrrolo[2,3-b]pyridine-2-carboxylic acid methyl ester] | < 50 | ≥ 50 | ≥ 50 | ≥ 50 | ≥ 1000 |  |  | ≥ 1000 | ≥ 1000 |  |  |  |  |  |  | 100 to 1000 | 100 to 1000 |  |  |
| COC(=O)c1cc2cc(CCc3cc(NC(=O)c4cncc(C(F)(F)F)c4)ccc3Cl)cnc2[nH]1 [OR1008, 5-(2-{2-Chloro-5-[(5-trifluoromethyl-pyridine-3-carbonyl)-amino]-phenyl}-ethyl)-1H-pyrrolo[2,3-b]pyridine-2-carboxylic acid methyl ester] | ≥ 50 | < 50 | < 50 | ≥ 50 | ≥ 1000 | ≥ 1000 | ≥ 1000 | ≥ 1000 | ≥ 1000 |  |  |  |  |  |  |  |  |  |  |
| CC(=O)c1cc2cc(CCc3cc(NC(=S)Nc4cccc(C(F)(F)F)c4)ccc3C)cnc2[nH]1 [OR1017, 1-{3-[2-(2-Acetyl-1H-pyrrolo[2,3-b]pyridin-5-yl)-ethyl]-4-methyl-phenyl}-3-(3-trifluoromethyl-phenyl)-thiourea] | < 50 | < 50 | < 50 | < 50 | ≥ 1000 | ≥ 1000 | ≥ 1000 |  | ≥ 1000 |  |  |  | 100 to 1000 |  |  |  |  |  |  |
| COC(=O)c1cc2cc(CCc3cc(NC(=O)c4ccc(CN5CCC(N(C)C)C5)c(C(F)(F)F)c4)ccc3Cl)cnc2[nH]1 (stereo not shown) [OR1007, 5-(2-{2-Chloro-5-[4-(3-dimethylamino-pyrrolidin-1-ylmethyl)-3-trifluoromethyl-benzoylamino]-phenyl}-ethyl)-1H-pyrrolo[2,3-b]pyridine-2-carboxylic acid methyl ester] | < 50 | ≥ 50 | ≥ 50 | ≥ 50 | ≥ 1000 |  | ≥ 1000 | ≥ 1000 | ≥ 1000 |  |  |  |  |  |  | 100 to 1000 |  |  |  |
| COC(=O)c1cc2cc(CNCc3cccc(NC(=O)c4ccc(CN5CCN(C)CC5)c(C(F)(F)F)c4)c3)cnc2[nH]1 [OR1020, 5-({3-[4-(4-Methyl-piperazin-1-ylmethyl)-3-trifluoromethyl-benzoylamino]-benzylamino}-methyl)-1H-pyrrolo[2,3-b]pyridine-2-carboxylic acid methyl ester] | < 50 | < 50 | < 50 | ≥ 50 | ≥ 1000 | ≥ 1000 | ≥ 1000 | ≥ 1000 | ≥ 1000 |  |  |  |  |  |  |  |  |  |  |
| COC(=O)c1cc2cc(CCc3cccc(NC(=O)c4ccc5[nH]ccc5c4)c3)cnc2[nH]1 [OR0978, 5-(2-{3-[(1H-Indole-5-carbonyl)-amino]-phenyl}-ethyl)-1H-pyrrolo[2,3-b]pyridine-2-carboxylic acid methyl ester] | < 50 | < 50 | < 50 | ≥ 50 |  | ≥ 1000 |  | ≥ 1000 |  |  |  |  |  |  |  |  |  | ≥ 50 | < 50 |
| COC(=O)c1cc2cc(C=Cc3cccc(C(=O)Nc4cccc(C(F)(F)F)c4)c3)cnc2[nH]1 [OR1046, 5-{2-[3-(3-Trifluoromethyl-phenylcarbamoyl)-phenyl]-vinyl}-1H-pyrrolo[2,3-b]pyridine-2-carboxylic acid methyl ester] |  |  |  |  | ≥ 1000 | ≥ 1000 | ≥ 1000 | ≥ 1000 | ≥ 1000 |  |  |  |  |  |  |  |  |  |  |
| COC(=O)c1cc2cc(CCc3cc(NC(=O)Nc4cccc(C(F)(F)F)c4)ccc3C)cnc2[nH]1 [OR0918, 5-(2-{2-Methyl-5-[3-(3-trifluoromethyl-phenyl)-ureido]-phenyl}-ethyl)-1H-pyrrolo[2,3-b]pyridine-2-carboxylic acid methyl ester] | < 50 | < 50 | < 50 | < 50 |  | ≥ 1000 |  | ≥ 1000 |  |  |  |  |  |  |  |  |  | ≥ 50 | < 50 |
| COC(=O)c1cc2cc(CCc3cccc(NC(=O)c4ccc5[nH]nnc5c4)c3)cnc2[nH]1 [OR0977, 5-(2-{3-[(1H-Benzotriazole-5-carbonyl)-amino]-phenyl}-ethyl)-1H-pyrrolo[2,3-b]pyridine-2-carboxylic acid methyl ester] | < 50 | < 50 | < 50 | < 50 |  | ≥ 1000 |  | ≥ 1000 |  |  |  |  |  |  |  |  |  | < 50 | < 50 |
| COC(=O)c1cc2cc(CCc3cccc(NC(=O)c4cncc(C(F)(F)F)c4)c3)cnc2[nH]1 [OR0981, 5-(2-{3-[(5-Trifluoromethyl-pyridine-3-carbonyl)-amino]-phenyl}-ethyl)-1H-pyrrolo[2,3-b]pyridine-2-carboxylic acid methyl ester] | ≥ 50 | < 50 | < 50 | ≥ 50 |  | ≥ 1000 |  | ≥ 1000 |  |  |  |  |  |  |  |  |  | ≥ 50 | ≥ 50 |
